Test results as given in article PMC7346113, “Screening of Natural Stilbene Oligomers from Vitis vinifera for Anticancer Activity on Human Hepatocellular Carcinoma Cells” (Antioxidants, 2020).

Columns and labels:
Type in all cases: cell-based, human
HepG2 [1] = test: Cell viability, crystal violet assay, HepG2; conditions: mean ± standard error
Excerpt: The human hepatoma cell line HepG2 was obtained from the American Tissue Culture Collection (ATCC, Manassas, VA, USA). The human hepatoma cell line Hep3B was obtained from the European Collection of Authenticated Cell Cultures (ECACC, Porton Down, Salisbury, Wiltshire, UK). HH4 non-transformed human hepatocyte cell line (kindly provided by Dr. I. Fabregat, Molecular Oncology, Bellvitge Biomedical Research Institute, Spain) was established as described.
HepG2 and Hep3B cell lines were maintained in Eagle’s Minimum Essential Medium and HH4 cell line was grown in Ham´s F12 Nutrient Mixture (Sigma-Aldrich, St Louis, MO, USA). Both culture media were supplemented with 10% heat inactivated fetal bovine serum, 2 mM L-glutamine and antibiotics (0.1 mg/mL streptomycin and 100 U/mL penicillin) (Sigma-Aldrich, St Louis, MO, USA). Cell cultures were grown in an incubator at 37 °C with 5% CO2 atmosphere. After reaching approximately 80% of confluence, cells were detached in a solution of 0.1% trypsin and 0.04% EDTA and plated as required for further experiments.
Cell lines were seeded into 96-well plates at 5 × 10^3 (HepG2) and 3 × 10^3 (Hep3B and HH4) cells/well 24 h before treatment. Increasing concentrations of the monomer trans-resveratrol, the dimers ampelopsin A and trans-ε-viniferin and the tetramers isohopeaphenol, hopeaphenol, R2-viniferin and R-viniferin were then added and cells were incubated for 24, 48, and 72 h. Stilbenes were dissolved in dimethyl sulfoxide (DMSO), Sigma-Aldrich, St Louis, MO, USA) at a final concentration of 0.01%. The same amount of DMSO was added to control cells. After treatment, the cell viability was determined using the crystal violet assay. The absorbance was recorded at 590 nm in a Synergy HT microplate reader (BioTek, Winooski, VT, USA). Cell viability was calculated as the percentage of viable cells treated with stilbene versus untreated control cells using the following equation: Cell viability (%) = [OD (Treatment) − OD (Blank)]/[OD (Control) − OD (Blank)] × 100. The cytotoxic effect of stilbenes was determined by calculating IC50 values using non-linear regression analysis (GraphPad Prism 6, San Diego, CA, USA).
The statistical package SPSS 19.0 (SPSS Inc. Chicago, IL, USA) was used for data analysis. The results were expressed as mean ± standard error (SE) from at least three experiments. Statistical significance for the differences of the means was estimated by parametric Student’s t-test. Differences between means were considered statistically significant for p < 0.05. IC50 values were derived from fitting the data to a sigmoidal dose-response curve with a three-parameter logistic model using Graph Pad Prism 6.

HepG2 [2] = test: Cell cycle analysis by flow cytometry (propidium iodide), HepG2; conditions: HepG2, 10 µM, mean ± SE
Protocol: Exponentially growing cells were seeded in 6-wells plates (200,000 cells HepG2 and 180,000 cells Hep3B) 24 h before R2-viniferin treatment. On the day of treatment, the culture medium was replaced with culture medium containing R2-viniferin or vehicle solution (control).
After a treatment, cells were detached by trypsinization and fixed overnight at 4 °C in 70% ice-cold ethanol diluted in phosphate buffer saline (PBS). The ethanol was then discarded and the cells were washed with ice-cold PBS and finally stained with 25 μg/mL of propidium iodide (Sigma-Aldrich, St Louis, MO, USA) in the presence of 200 μg/mL ribonuclease A (Roche Biochemicals, Indianapolis, IN, USA) for 30 min at room temperature in the dark. Flow cytometry analysis (Beckman Coulter Gallios) was carried out from a total number of 10,000 events acquired in the General Research Services SGIker of the UPV/EHU. Analysis of the data was performed using Summit 4.3 software (Dako, Glostrup, Hovedstaden, Denmark).

[3] = tested on: Bax and Bcl-2 expression in HepG2 cells; test: Western blot analysis of Bax and Bcl-2 expression; conditions: 24 h
Protocol: HepG2 cells were seeded in Petri dishes, incubated for 24 h and then treated with 5 and 10 µM R2-viniferin. Following 24 h of treatment, the cells were lysed in ice for 30 min with lysis buffer (20 mM HEPES pH 7.5, 1 mM NaF, 10 mM EGTA, 40 mM β-glycerophosphate, 1% NP-40, 2.5 mM MgCl2, 2 mM orthovanadate, and 1 mM DTT) to which 10 μL/mL of a protease inhibitor cocktail (Sigma-Aldrich, St Louis, USA) was added just before use. Cellular fragments were removed by centrifugation at 12,000× g for 10 min at 4 °C, and total protein concentration was determined by Bradford assay. The cellular protein extracts were boiled at 95 °C for 5 min in Laemmli buffer and separated by sodium dodecyl sulfate–polyacrylamide gel electrophoresis in 15% polyacrylamide gels. Proteins were transferred onto polyvinylidene difluoride (PVDF) membranes by electro-blotting with constant amperage (1 mA/cm^2) for 2 h in a wet chamber. After blocking for 1 h in 5% bovine serum albumin (BSA) Tris-buffered saline containing Tween 20 at room temperature, membranes were incubated overnight at 4 °C with antibodies to Bax (Santa Cruz Biotechnology, 1:500), Bcl-2 (Santa Cruz Biotechnology, 1:500) and glyceraldehyde-3-phosphate dehydrogenase (GAPDH, Abcam, 1:2000). After washing, membranes were probed with their corresponding secondary antibody conjugated to horseradish peroxidase for 1 h at room temperature. Specific proteins were detected using the enhanced chemiluminescence (ECL) substrate kit (Clarity Western ECL substrate, Bio-Rad, Hercules, California, USA) and the blots were imaged with the C-DiGit LI-COR blot scanner (Bonsai Advanced technologies S.L. Madrid, Spain). Intensities of target protein bands were determined by densitometry and normalized to the intensity of the loading control GAPDH protein.

Q: Which IC50 (HepG2 [1]; 72 h) does the source give for `Oc1ccc([C@H]2c3c(O)cc(O)cc3[C@H]3c4c(cc(O)cc4[C@@H]2c2cc(/C=C/c4cc(O)cc5c4[C@H](c4cc(O)cc(O)c4)[C@@H](c4ccc(O)cc4)O5)ccc2O)O[C@@H]3c2ccc(O)cc2)cc1` [R2-Viniferin] here?
A: 9.7 ± 0.4 µM

Q: What about the IC50 (HepG2 [1]; Homo sapiens, HepG2, 24 h, 24 h) of the same molecule?
A: > 200 µM

Q: What about the IC50 (HepG2 [1]; Homo sapiens, HepG2, 48 h, 48 h) of the same molecule?
A: 10.2 ± 8.2 µM

Q: What about the IC50 (HepG2 [1]; Homo sapiens, HepG2, 72 h, 72 h) of the same molecule?
A: < 10 µM

Q: What about the “Cell cycle G0/G1 (percentage of cells)” value (HepG2 [2]; 24 h) of the same molecule?
A: 65.6 ± 11.7%

Q: And the “Cell cycle G2/M (percentage of cells)” value (HepG2 [2]; 24 h)?
A: 22.5 ± 8.5%

Q: What about the “Cell cycle S (percentage of cells)” value (HepG2 [2]; 24 h) of the same molecule?
A: 11.9 ± 3.2%

Q: What about the “SubG0 (percentage of total cells)” value (HepG2 [2]; 24 h) of the same molecule?
A: 8.5 ± 2.7%

Q: And the “Cell cycle G0/G1 (percentage of cells)” value (HepG2 [2]; 48 h)?
A: 71.7 ± 10.9%

Q: What about the “Cell cycle G2/M (percentage of cells)” value (HepG2 [2]; 48 h) of the same molecule?
A: 19.3 ± 6.5%

Q: And the “Cell cycle S (percentage of cells)” value (HepG2 [2]; 48 h)?
A: 9.0 ± 4.5%

Q: What about the “SubG0 (percentage of total cells)” value (HepG2 [2]; 48 h) of the same molecule?
A: 22.4 ± 11.0%

Q: And the “Cell cycle G0/G1 (percentage of cells)” value (HepG2 [2]; 72 h)?
A: 75.5 ± 7.8%

Q: What about the “Cell cycle G2/M (percentage of cells)” value (HepG2 [2]; 72 h) of the same molecule?
A: 15.0 ± 2.2%

Q: What about the “Cell cycle S (percentage of cells)” value (HepG2 [2]; 72 h) of the same molecule?
A: 9.5 ± 5.6%

Q: What about the “SubG0 (percentage of total cells)” value (HepG2 [2]; 72 h) of the same molecule?
A: 71.0 ± 2.1%

Q: And the “Bax/Bcl-2 ratio increase over control” value ([3]; HepG2, 5 µM)?
A: 39%

Q: What about the “Bax/Bcl-2 ratio increase over control” value ([3]; HepG2, 10 µM) of the same molecule?
A: 123%

Q: And the “Expression of anti-apoptotic Bcl-2 proteins” value ([3]; HepG2, 5 and 10 µM)?
A: downregulated

Q: And the “Expression of proapoptotic Bax protein” value ([3]; HepG2, 5 and 10 µM)?
A: upregulated
